# Measurements reported in ChEMBL document CHEMBL1138897, “Function of the alkyl side chains of Deltalac-acetogenins in the inhibitory effect on mitochondrial complex I (NADH-ubiquinone oxidoreductase)” (Bioorg Med Chem Lett, 2006).
# pIC50: −log10 of the molar value.
# Molecular target: Mitochondrial complex I; NADH oxidoreductase (Bos taurus, UniProt P25708+P52505)
# Assay: Inhibition of bovine mitochondrial NADH-ubiquinone oxidoreductase by NADH oxidase assay
# Format: protein-complex assay
# Sequence of Mitochondrial complex I; NADH oxidoreductase (P25708 21-464 limits assumed, other chains not shown): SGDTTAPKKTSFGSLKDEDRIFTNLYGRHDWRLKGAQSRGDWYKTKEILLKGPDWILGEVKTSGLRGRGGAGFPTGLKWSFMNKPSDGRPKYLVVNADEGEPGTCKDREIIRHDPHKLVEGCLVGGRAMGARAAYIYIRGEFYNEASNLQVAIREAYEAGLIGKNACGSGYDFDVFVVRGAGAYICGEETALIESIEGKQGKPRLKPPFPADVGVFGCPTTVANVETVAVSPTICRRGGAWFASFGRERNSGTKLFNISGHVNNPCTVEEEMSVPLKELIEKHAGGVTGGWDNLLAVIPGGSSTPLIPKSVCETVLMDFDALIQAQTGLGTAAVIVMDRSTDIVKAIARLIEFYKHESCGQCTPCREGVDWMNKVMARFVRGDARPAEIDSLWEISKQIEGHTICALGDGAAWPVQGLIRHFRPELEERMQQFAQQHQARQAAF
row,SMILES,pIC50
1,CCCCCCCCCC[C@@H](O)[C@H]1CC[C@H]([C@H]2CC[C@H]([C@H](O)CCCCCC)O2)O1,8.49
2,CCCCCCCC[C@@H](O)[C@H]1CC[C@H]([C@H]2CC[C@H]([C@H](O)CCCCCCCC)O2)O1,7.35
3,CCCCCCCCCCCC[C@@H](O)[C@H]1CC[C@H]([C@H]2CC[C@H]([C@H](O)CCCCCCCC)O2)O1,8.12
4,CCCCCCCCCCCC[C@@H](O)[C@H]1CC[C@H]([C@H]2CC[C@H]([C@H](O)CCCCCCCCCCCC)O2)O1,8.05
5,CCCCCCCCCCCCCC[C@@H](O)[C@H]1CC[C@H]([C@H]2CC[C@H]([C@@H](C)O)O2)O1,6.39
6,CCCCC(CC)CCC[C@@H](O)[C@H]1CC[C@H]([C@H]2CC[C@H]([C@H](O)CCCC(CC)CCCC)O2)O1 (some centres not stated),6.06
7,CCCCCCCCCC[C@@H](O)[C@H]1CC[C@H]([C@H]2CC[C@H]([C@@H](C)O)O2)O1,6.55
8,CCCCCCCCCCCCCC[C@@H](O)[C@H]1CC[C@H]([C@H]2CC[C@H]([C@H](O)CCCCCC)O2)O1,7.47
9,CCCCCCCCCC[C@@H](O)[C@H]1CC[C@H]([C@H]2CC[C@H]([C@H](O)CCCC(CCC)CCC)O2)O1,7.57
10,CCCC(CCC)CCC[C@@H](O)[C@H]1CC[C@H]([C@H]2CC[C@H]([C@H](O)CCCC(CCC)CCC)O2)O1,5.82
11,CCCCCCCCCC[C@@H](O)[C@H]1CC[C@H]([C@H]2CC[C@H]([C@H](O)CC)O2)O1,7.35
12,CCCCCCCCCC[C@@H](O)[C@H]1CC[C@H]([C@H]2CC[C@H]([C@H](O)CCCCCCCCCC)O2)O1 [dleta-lac-Acetogenin],8.77
